Data taken from patent US20260306633A1, “A COMBINATION THERAPY FOR CANCER TREATMENT” (Purdue Research Foundation, priority 2023, published 2026).
Entries after “also recorded” stand apart in the source; their conditions may differ. Like-named read-outs stand apart in the source and are kept apart here.

Assays:
[1] = tested on: human gastric adenocarcinoma AGS cell line; conditions: another study; cited from earlier work
TNBC BT-549 cells = assay: Cell survival / cell inhibition (MTT cell cytotoxicity assay) after 24 h treatment with photosensitizer and/or chemotherapeutic agent, dark or light-irradiated; assay type: cell-based, human; conditions: for viability at 0.1 µM / viability at 0.01 µM: paclitaxel; for viability at 0.1 µM: high end of 10-100 nM, read-out: cell survival, drug only (end of decrease); for viability at 0.01 µM: low end of 10-100 nM, read-out: cell survival, drug only (start of decrease)
human TNBC BT-549 cells = assay: Fluorescence microscopy (Hoechst 33258) of cell morphology / cell death pathway; assay type: cell-based; conditions: paclitaxel 50 nM, unirradiated (FIG. 18I)
[2] = tested on: human triple-negative breast cancer (TNBC) BT-549 cells; assay: Transmission electron microscopy of cell ultrastructure; assay type: cell-based; conditions: paclitaxel 50 nM
Method: Irregularly shaped nuclear membrane is apparent in treated cells in the dark or in the presence of light. Light dose in 30 seconds=0.48 J cm^−2. Concentrations: PSs=50 nM; paclitaxel=50 nM; and, fluororuracil=25 μM.
Cells were cultured to confluence in a petri dish ([…] in diameter), treated for 24 hrs with 500 nM of PS, then irradiated for 2 minutes as above. After 12 photosensitization 24 hours later, cells were scraped gently in the dark, fixed in 2.5% glutaraldehyde in 0.1M [COMPOUND LEFT OUT] buffer, then post-fixed with 1% osmium tetroxide (containing 0.8% [COMPOUND LEFT OUT], treated with 2% aqueous uranyl acetate, and subsequently dehydrated in gradient concentrations (50-100%) of varying ethanol:water mixtures. The resulting pellets were embedded in resin and consequently cut with an ultramicrotome to a 70 nm thickness, then viewed using Tecnai T20 transmission electron microscope.
Transmission electron micrographs of TNBC cells clearly differentiated distinct cellular compartments, in particular, of nuclear components and plasma membrane during treatment as shown in FIG. 19. A typical normal organelle morphology with smooth-contoured cellular plasma membrane is depicted in TNBC cells irradiated with light without treatment with PS nor chemotherapeutic agent (FIG. 19A). […]

[3] = Homo sapiens, BT-549, 24 h, dark
[4] = Homo sapiens, BT-549, 24 h, light

CC(=O)O[C@H]1C(=O)[C@@]2(C)[C@H]([C@H](OC(=O)c3ccccc3)[C@]3(O)C[C@H](OC(=O)[C@H](O)[C@@H](NC(=O)c4ccccc4)c4ccccc4)C(C)=C1C3(C)C)[C@]1(OC(C)=O)CO[C@@H]1C[C@@H]2O [paclitaxel, reference compound]
cell death modes triggered [1]: apoptosis, autophagy, and mitotic catastrophe were triggered | viability at 0.05 µM (TNBC BT-549 cells; Homo sapiens, BT-549, 24 h, paclitaxel 50 nM, dark, read-out: cell survival, drug only): 57% | viability at 0.1 µM (TNBC BT-549 cells; [3]): 49% | viability at 0.01 µM (TNBC BT-549 cells; [3]): 64% | viability at 0.1 µM (TNBC BT-549 cells; [4]): 52% | viability at 0.01 µM (TNBC BT-549 cells; [4]): 66% | average increase in cell survival upon light irradiation compared to unirradiated cells, drug only (TNBC BT-549 cells; drug alone, light vs dark): 4% | cell morphology, paclitaxel-treated (human TNBC BT-549 cells): shrunk cells and chromatin fragmentation are evident; also recorded: Shrunk cells and chromatin condensation are evident | ultrastructure, paclitaxel in the dark ([2]; dark (FIG. 19C)): Irregularly shaped nuclear envelope; also recorded: loss of nuclear circularity and formation of chromatin condensation | ultrastructure, paclitaxel irradiated ([2]; light 0.48 J/cm^2 (FIG. 19E)): smaller nuclei in multi-nucleated cells indicating chromosomal condensation; also recorded: split and fragmented with many atypical vesicular components in the cytosolic compartment
